The source of these data is patent publication US20170100447A1, “COMPOSITIONS BASED ON PLANT EXTRACTS FOR INHIBITION OF THE 5-ALPHA REDUCTASE” (BIONAP S.R.L., priority 2014, published 2017).

The assay deals with immortalized human sebocytes (SZ95 sebocyte line). Nature of the assay: MTT assay on testosterone-stimulated sebocytes. The format is cell-based. To be noted: testosterone 10^−6 M; 9 days. As to the method: The line of immortalized human sebocytes (SZ95 sebocyte line) has been cultivated in medium Sebomed (Biochrom) supplemented with fetal calf serum 10%, […] of recombining human epidermal growth factor, 1 mM Ca^2+ and 50 μg/ml gentamicin, in an atmosphere of CO2 5% at 37° C. The SZ95 cells have been subsequently plated on wells for the MTT assays and, after 24 hours of incubation in an atmosphere of CO2 5% at 37° C., have been treated with a new culture medium containing testosterone in a final concentration of 10^−6 M and the extracts, according to the indications reported in Table 1.
The cellular vitality has been assessed for each sample after 9 days of treatment through colorimetric MTT assay (according to the protocol as above described) and expressed in a percentage value with respect to control (0%) and to the treatment with testosterone (test=100%). Each experiment has been carried out in triplicate.

Molecules are shown by their SMILES.

For `C[C@]12CC[C@H]3[C@@H](CCC4=CC(=O)CC[C@@]43C)[C@@H]1CC[C@@H]2O` [testosterone], the “effect of testosterone on cellular proliferation of SZ95 sebocytes” value is “induces in these cells an increase of cellular proliferation”.
